Measured values reported in article PMC4912613, “A broad analysis of resistance development in the malaria parasite” (Nature Communications, 2016).
pEC50: −log10 of the molar value. Read-outs that look alike come from different tables or passages of the source.

Assays:
Dd2 = experiment: Cross-resistance EC50 assay, Dd2 parent; assay type: cell-based, Plasmodium falciparum; conditions: Plasmodium falciparum, DD2, 72 h; for pEC50: read-out: Dd2 (PARENT) Average EC50; for EC50: read-out: Dd2 (PARENT) EC50 (µM) Average EC50
From the text: Multidrug resistance alleles, including mutations in P. falciparum chloroquine resistance transporter (pfcrt) and P. falciparum multi-drug resistance transporter 1 (pfmdr1) are very common in field isolates. Therefore, we sought to assess the degree to which pre-existing resistance alleles would contribute to a loss of potency for this diverse collection of small molecule compounds. Fifteen clones derived from three main parent lines were chosen to maximize diversity in mutated pathways and genetic backgrounds, thus representing the variety of resistance seen in the field: 3D7 (ref. [23]), W2 (ref. [24]) or Dd2 (ref. [25]). The 3D7 line originates from the clone of a Netherlands clinical isolate strain[23][26] and is generally considered to be drug sensitive, though it does convey resistance to sulfadoxine. Conversely, W2 (ref. [24], [27]) and Dd2 (ref. [25]) are multi-drug-resistant lines originating from the Indochina III/CDC isolate, which contain point mutations in pfcrt as well as amplifications in pfmdr1 and GTP cyclohydrolase.
(§1) To evaluate potential overlapping activity against known antimalarial drug targets, we performed dose-response studies with each compound against our assembled set of drug-resistant lines and their corresponding parents, in an asexual blood stage proliferation assay (Table 1). Comparisons were made to the drug-sensitive strain 3D7 when a parent was unavailable (TM90C2A, W2 and Dd2). As laboratories conducted EC50 assays with different strains and protocols, all comparisons were made between assays from the same laboratory and under the same assay conditions. Compounds displaying >5-fold EC50 shifts relative to the parent or sensitive strain were flagged as having potentially non-novel targets. Average fold shifts per strain ranged from 0.82 to 2.34, with a median of 1.23 indicating there was not common resistance to any one resistant clone. No resistance patterns were observed when classifying the compounds based on chemical structure, but this was not surprising given the diversity of compounds chosen. On the other hand, given that these confirmed compounds were derived from larger unconfirmed hit lists to which some filtration criteria may have been applied (for example, elimination of obvious dihydrofolate reductase inhibitors[32]), some[10][11][12][13] pre-existing bias may exist in the set. […]
(§2) Alternatively, a SYBR Green-based proliferation approach was used for the 72-h assay, as previously described. Briefly, a culture of either synchronized or asynchronous parasitized RBCs (0.3% parasitemia and 4% haematocrit) in screening medium (identical to supplemented medium above except no serum was added) was exposed to serial drug dilutions. Plates were incubated at 37 °C and gassed with 93% N2, 4% CO2 and 3% O2 for 72 h. Following incubation, 10 × SYBR Green I (Invitrogen; supplied in 10,000 × concentration) in lysis buffer ([…], 5 mM EDTA, 0.16% Saponin wt per vol and 1.6% Triton X vol per vol) was added to the wells and the plates were incubated overnight at room temperature before plate reading. EC50 assays were repeated three times, taking the average EC50 value from each assay set, and removing any outliers using a single iteration of Grubbs' test, eliminating values with z-scores above the critical z-value (α=0.05). The raw EC50 values for synchronized parasites assayed in a 384-well format are listed in Supplementary Data 4. The raw EC50 values for asynchronous parasites assayed in a 96 or 1536-well format are listed in Supplementary Data 5.
(§3) EC50 values for each strain were compared with those of the corresponding parent strain to determine fold-shift changes and identify resistance. To minimize the cause variance between assays, all comparisons were conducted between strains assayed under identical conditions. A one-way ANOVA followed by a Dunnet's post-test was conducted in GraphPad Prism to identify significant changes between the parent and resistant strain.

PfCRT-Q352R (parent Dd2) = experiment: Cross-resistance EC50 assay, PfCRT-Q352R; assay type: cell-based; conditions: Plasmodium falciparum, DD2, 72 h, read-out: PfCRT:Q352R (Dd2 Parent) Average EC50
From the text: as §1, §2, §3

P. falciparum strain 3D7 = experiment: Asexual blood stage 3H-hypoxanthine incorporation assay, 3D7; assay type: cell-based, Plasmodium falciparum; conditions: Plasmodium falciparum
Description: The 48-h assay was carried out in a 96-well format following standard methods using the ^3H-hypoxanthine incorporation assay. The raw EC50 values corresponding to this assay can be found in Supplementary Data 3. Briefly, this assay relies on the parasite incorporation of labelled hypoxanthine that is proportional to P. falciparum growth. A culture of parasitized RBCs (0.5% parasitemia with a percentage of ring stage higher than 70% of total parasitemia, 2.0% haematocrit) in RPMI-1640, […] and 5 μM hypoxanthine was exposed to drug serial dilutions. Plates were incubated for 24 h at 37 °C, 5% CO2, 5% O2 and 90% N2. After 24 h of incubation, ^3H-hypoxanthine was added and plates were incubated for an additional 24-h period. After that, parasites were harvested on a glass fibre filter using a TOMTEC Cell Harvester 96. Filters were dried and melt-on scintillator sheets were used to determine the incorporation of ^3H-hypoxanthine. Radioactivity was measured using a microbeta counter. Data were normalized using the incorporation of the positive (parasitized RBCs without drug) and negative (same culture with artesunate at 2 μM) controls. All assays were conducted in triplicate using three independently grown cultures, and EC50 values were determined using the XLfit add-in module for Excel (version 2.3.1) from Grafit (version 5.3.1.3), where parameter h is the assay hill slope, x is the compound concentration and y is the inhibition of growth effect. The XLfit equation is: […]

[1] = test system: CYTb-G131S (cytb G131S, parent Dd2); experiment: Cross-resistance EC50 assay, CYTb-G131S; assay type: cell-based, Plasmodium falciparum; conditions: Plasmodium falciparum, SYBR green 72 hour assay, synchronized parasites, 384-well format
From the text: as §1, §2, §3

[2] = test system: DHODH (E182D, parent 3D7); experiment: Cross-resistance EC50 assay, DHODH; assay type: cell-based; conditions: Plasmodium falciparum, SYBR green 72 hour assay, synchronized parasites, 384-well format
From the text: as §1, §2, §3

[3] = test system: CYTbQi (cytb G33A, parent Dd2); experiment: Cross-resistance EC50 assay, CYTbQi; assay type: cell-based; conditions: Plasmodium falciparum, SYBR green 72 hour assay, synchronized parasites, 384-well format
From the text: as §1, §2, §3

[4] = test system: ATQ-R5 (cytb F267V, parent 3D7); experiment: Cross-resistance EC50 assay, ATQ-R5; assay type: cell-based, Plasmodium falciparum; conditions: Plasmodium falciparum, 3D7; SYBR green 72 hour assay; asynchronized parasites; 96-well or 1536-well format; ATQ-R5
From the text: as §1, §2, §3

[5] = 3D7, asexual stage, P. falciparum 3D7, read-out: 3D7 EC50

Row | Structure (SMILES) | pEC50 (Dd2) | EC50 (Dd2) [µM] | pEC50 (PfCRT-Q352R (parent Dd2)) | pEC50 (P. falciparum strain 3D7; [5]) | pEC50 ([1]; strain CYTb:G131S (Dd2 parent)) | pEC50 ([2]; strain DHODH (3D7 parent)) | pEC50 ([3]; strain CYTbQi (Dd2 parent)) | EC50 [4] [µM] | pEC50 (P. falciparum strain 3D7; 3D7, read-out: 3D7 EC50) | pEC50 ([1]; DD2, CYTb:G131S strain) | pEC50 ([2]; 3D7, DHODH strain) | pEC50 ([3]; DD2, CYTbQi strain)
1 | OC(CNC1CCCCC1)Cn1c2ccc(I)cc2c2cc(I)ccc21 (stereo not shown) [MMV665882] | 7.30 | 0.038 | 7.33 | 7.14 | 7.34 | 7.29 | 7.60 | 0.026 | – | – | – | –
2 | Cc1ccc(S(=O)(=O)n2cc(-c3ccnc(N)c3)c3cc(Br)cnc32)cc1 [MMV024114] | 6.12 | 1.64 | 6.30 | 6.58 | 5.78 | 6.40 | 5.86 | 1.72 | – | – | – | –
3 | Cl.c1ccc2c(NCCCCCCNc3c4c(nc5ccccc35)CCCC4)c3c(nc2c1)CCCC3 [MMV019555] | 6.63 | 0.241 | 6.78 | – | 6.63 | 7.25 | 6.64 | 0.086 | 7.06 | – | – | –
4 | COc1cc(C(=O)ON=C(N)Cc2cccc3ccccc23)cc(OC)c1OC [MMV666687] | 6.50 | 0.87 | 6.49 | 6.46 | 6.31 | 5.97 | 6.23 | 0.914 | – | – | – | –
5 | COc1cc2cc(C(=O)Nc3ccccc3)c(N)nc2cc1OC [MMV006767] | 5.80 | 0.215 | 5.83 | 6.02 | 5.74 | 6.28 | 5.72 | 2.87 | – | – | – | –
6 | O=C(NCC(CCCN1CCC(c2c[nH]c3ccccc23)CC1)c1ccccc1)Nc1ccc(Cl)c(Cl)c1 (stereo not shown) [MMV029272] | 6.08 | 0.285 | 6.57 | 6.87 | 6.04 | 6.83 | 6.21 | 4.49 | – | – | – | –
7 | CCOc1cc2c(cc1OCC)C(c1cc(Cl)ccc1O)NCC2 (stereo not shown) [MMV000478] | 6.10 | 0.843 | 6.11 | 5.97 | 5.86 | 5.84 | 6.09 | 0.733 | – | – | – | –
8 | CN(C)CCCNCc1ccc(-c2ccc(Cl)c(Cl)c2)o1 [MMV673964] | 6.37 | 1.12 | 6.26 | 6.22 | – | – | – | 0.108 | – | 6.44 | 6.47 | 6.50
9 | O=C(Nc1ccccc1O)c1ccc(Oc2cccc(C(=O)Nc3ccccc3O)c2)cc1 [MMV665888] | 6.21 | 0.66 | 6.17 | 5.92 | 6.00 | 5.99 | 6.22 | 0.989 | – | – | – | –
10 | c1cncc(-c2cc(N3CCC(CN4CCOCC4)CC3)nc(-c3ccncc3)n2)c1 [MMV668399] | 7.06 | 0.984 | 7.15 | 7.08 | 6.86 | 7.10 | 6.79 | 0.339 | – | – | – | –
11 | CCCCCCCN(Cc1ccc(OC(C)(C)C(=O)OCC)cc1)C(=O)Nc1ccc(Cl)cc1OCC [MMV021735] | 6.59 | 1.29 | 6.59 | 6.42 | 6.30 | 6.34 | 6.65 | 0.062 | – | – | – | –
